How the values were obtained:
Test in all cases: […]-pyruvate uptake, filter assay, complemented triple mutant
Type in all cases: cell-based
Details in all cases: 0.5 mM 14C-pyruvate, TSBG, 37 °C; labelled compound
LrgAB = molecular target: T1, LrgAB (Staphylococcus aureus, UniProt Q2FK07+Q2FK08)
T1 construct: gene lrgA; lrgAB operon, untagged; expressed from Pcad::lrgAB (pBK123) in S. aureus JE2 transporter mutants

LctP = molecular target: T2, LctP (Staphylococcus aureus, UniProt A0A0H2XEN8)
T2 construct: full-length 530 aa, untagged; expressed from Pcad::lctP (pBK123) in S. aureus JE2 delta lrgAB/lctP/lldP
T2 sequence (A0A0H2XEN8 entry or part of it): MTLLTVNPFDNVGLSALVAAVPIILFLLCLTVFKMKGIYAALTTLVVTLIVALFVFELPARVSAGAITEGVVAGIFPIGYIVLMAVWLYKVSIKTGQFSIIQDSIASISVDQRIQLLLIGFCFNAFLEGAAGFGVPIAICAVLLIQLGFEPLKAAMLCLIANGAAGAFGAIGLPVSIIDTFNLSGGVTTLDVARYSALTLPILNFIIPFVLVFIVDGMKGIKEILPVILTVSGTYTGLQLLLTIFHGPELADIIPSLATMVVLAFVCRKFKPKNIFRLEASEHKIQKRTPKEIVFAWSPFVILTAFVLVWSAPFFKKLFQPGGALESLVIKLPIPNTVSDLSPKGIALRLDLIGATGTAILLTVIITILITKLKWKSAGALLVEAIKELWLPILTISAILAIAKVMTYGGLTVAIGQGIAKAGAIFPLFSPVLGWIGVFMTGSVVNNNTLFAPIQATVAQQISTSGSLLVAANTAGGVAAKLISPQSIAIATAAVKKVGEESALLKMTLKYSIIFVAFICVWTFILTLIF

LldP = molecular target: T3, LldP (Staphylococcus aureus, UniProt A0A0H2XGA6)
T3 construct: gene SAUSA300_2313; full-length 532 aa, untagged; expressed from Pcad::lldP (pBK123) in S. aureus JE2 delta lrgAB/lctP/lldP
T3 sequence (A0A0H2XGA6 entry or part of it): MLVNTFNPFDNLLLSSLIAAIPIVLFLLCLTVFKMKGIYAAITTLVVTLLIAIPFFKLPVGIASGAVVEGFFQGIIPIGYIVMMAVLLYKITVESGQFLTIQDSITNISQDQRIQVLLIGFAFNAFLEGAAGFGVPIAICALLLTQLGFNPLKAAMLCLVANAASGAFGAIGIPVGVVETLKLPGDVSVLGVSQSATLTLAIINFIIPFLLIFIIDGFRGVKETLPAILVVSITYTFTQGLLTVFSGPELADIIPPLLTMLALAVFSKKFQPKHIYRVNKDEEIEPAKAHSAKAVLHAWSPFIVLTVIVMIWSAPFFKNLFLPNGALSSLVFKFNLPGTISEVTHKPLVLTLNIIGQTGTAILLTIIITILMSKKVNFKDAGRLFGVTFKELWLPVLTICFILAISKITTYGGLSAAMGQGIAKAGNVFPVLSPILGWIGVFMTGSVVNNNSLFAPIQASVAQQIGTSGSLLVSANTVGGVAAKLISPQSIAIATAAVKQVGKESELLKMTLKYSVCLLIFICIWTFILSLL

T1 sequence (Q2FK07 whole entry): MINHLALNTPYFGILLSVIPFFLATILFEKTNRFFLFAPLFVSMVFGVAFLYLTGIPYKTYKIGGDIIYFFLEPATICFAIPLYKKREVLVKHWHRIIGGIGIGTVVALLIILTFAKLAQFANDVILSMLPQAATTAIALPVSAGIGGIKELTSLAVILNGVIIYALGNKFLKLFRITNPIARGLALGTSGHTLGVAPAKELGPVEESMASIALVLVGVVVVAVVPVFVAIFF
T1 sequence (Q2FK08 whole entry): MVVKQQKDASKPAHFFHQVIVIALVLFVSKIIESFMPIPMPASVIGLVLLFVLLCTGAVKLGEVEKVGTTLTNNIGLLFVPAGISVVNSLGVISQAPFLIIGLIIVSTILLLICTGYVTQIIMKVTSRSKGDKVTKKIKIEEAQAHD

CC(=O)C(=O)O [pyruvate]
14C-pyruvate uptake, filter assay, complemented triple mutant (LrgAB): lctP playing the most significant role under these conditions, followed by lldP, and then lrgAB
14C-pyruvate uptake, filter assay, complemented triple mutant (LctP): all three of the putative pyruvate transporters contribute to pyruvate import, with lctP playing
14C-pyruvate uptake, filter assay, complemented triple mutant (LldP): lctP playing the most significant role under these conditions, followed by lldP, and then lrgAB
